Test system: scar formation after surgical incisions
Experiment: Scar formation after surgical incisions in mice, cream applied 24 hours after surgery
Type: in vivo, Swiss-Webster mice
Conditions: rated from 0 (little or no scarring) to 4 (maximum observed scarring); cream at pH 6.5 applied 24 hours after 1.25 cm surgical incision; 15 mice
Procedure: This Example describes the use of a pastes prepared with the complexes of various copper peptides or copper complexes of amino acids and combinations of copper peptides or copper complexes of amino acids and salicylic acid to reduce scarring after surgery in animals.
Surgical incisions (1.25 cm) were made on the backs of anesthetized, 35 gram, Swiss-Webster mice. To allow normal scar development, there was no treatment after surgery. But 24 hours after surgery, the scars were covered with a cream containing either copper peptide alone or in combination with salicylic acid. Control wounds were untreated.
For comparison, the amount of scar formation was rated from 0 (little or no scarring) to 4 (maximum observed scarring) after seven days.
Table 1: Effect of cream at pH 6.5 with either peptide-copper complex or amino acid-copper complex or the combination of peptide copper/salicylic acid combination or amino acid copper/salicylic acid combination on scar formation

For Gly-His-Lys-Copper(II), the “Scar Formation score after 7 days” value was 2.7 ± 0.6.

From patent US20050276766A1, “Methods and compositions for increasing skin remodeling” (Skin Biology, Inc., priority 2003, published 2005)
